Structures can show the parent of a compound that is named as a salt.

Drawing on patent publication US20120302569A1, “PHENYL-THIAZOLYL INHIBITORS OF PRO-MATRIX METALLOPROTEINASE ACTIVATION” (priority 2011, published 2012), this text covers Kd and IC50 for 15 molecules.

In assay [1] the target is T1, proMMP9(67-444;ΔFnII) (SEQ ID NO:5) (Homo sapiens, UniProt P14780, DEL216-390).
T1 construct: start methionine (N); made in house; host or cells: E. coli BL21(DE3) RIL
T1 sequence (P14780 with tags, fused parts or gaps DEL216-390): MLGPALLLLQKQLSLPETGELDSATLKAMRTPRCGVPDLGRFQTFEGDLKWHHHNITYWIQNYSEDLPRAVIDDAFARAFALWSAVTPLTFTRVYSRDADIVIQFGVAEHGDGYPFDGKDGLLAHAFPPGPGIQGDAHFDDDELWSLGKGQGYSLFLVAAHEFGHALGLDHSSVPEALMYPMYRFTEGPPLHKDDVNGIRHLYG
The experiment in a line: ThermoFluor with proMMP9(67-444;ΔFnII). Particulars: read-out: proMMP9(67-444; ΔFnII) (SEQ ID NO: 5) binding. An outline of the steps: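 Thermal shift with 3.5 μM protein and 50 μM 1,8-ANS in 50 mM HEPES pH 7.0, 100 mM NaCl, 0.001% Tween-20, 2.5 mM MgCl2, 300 μM CaCl2, heated 40–90 °C at 1 °C/min. Fluorescence (500±25 nm) fit to yield Tm; binding fitted using DSC/ThermoFluor-derived thermodynamic parameters, compounds dosed as serial dilutions.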
On the technique in general: DSF heats the sample and reads unfolding from a dye or from intrinsic fluorescence.

The target in assay [2] is T2, proMMP9(20-445;ΔFnII) (SEQ ID NO:6) (Homo sapiens, UniProt P14780, DEL216-390).
T2 construct: start methionine (N); made in house; host or cells: E. coli BL21(DE3) RIL
T2 sequence (P14780 with tags, fused parts or gaps DEL216-390): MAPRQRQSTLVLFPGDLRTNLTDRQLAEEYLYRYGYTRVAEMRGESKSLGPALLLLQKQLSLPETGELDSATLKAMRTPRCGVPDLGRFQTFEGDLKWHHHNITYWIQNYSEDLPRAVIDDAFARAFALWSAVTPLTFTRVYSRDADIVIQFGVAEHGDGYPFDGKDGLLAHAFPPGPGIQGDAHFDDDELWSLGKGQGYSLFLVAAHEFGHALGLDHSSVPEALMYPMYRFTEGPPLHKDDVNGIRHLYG
The experiment in a line: ThermoFluor with proMMP9(20-445;ΔFnII). Particulars: read-out: proMMP9(20-445; ΔFnII) (SEQ ID NO: 6) binding. The procedure, abridged:
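Thermal shift of 2.8 μM desalted proMMP9(20-445;ΔFnII) with 50 μM 1,8-ANS in 50 mM HEPES pH 7.0, NaCl, Tween-20, MgCl2, CaCl2; heated 40-90 °C at 1 °C/min, emission 500 nm. Tm from fitted curves; binding fit using DSC/ThermoFluor-derived unfolding parameters for 11-point compound dilutions.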

In assay [3] the target is T3, full-length proMMP9(1-707) (SEQ ID NO:1) (Homo sapiens, UniProt P14780, R574P).
T3 construct: made in house; host or cells: HEK293 (proMMP9, secreted); E. coli (MMP3)
The experiment in a line: proMMP9/MMP3 P126 Activation Assay. The assay is classed as biochemical. The following applies: proMMP9(1-707) from HEK293 cells activated by catalytic MMP3. The procedure: proMMP9/MMP3 P126 Activation Assay
The reaction volume was 50 μL. […] Reactivity of residual MMP3 towards P-126 substrate was minimal under these conditions.

Assay [4] addresses T4, proMMP13(1-268) (SEQ ID NO:7) (Homo sapiens, UniProt P45452).
T4 construct: 6×-histidine tag (C); made in house; host or cells: HEK293 (transient transfection, secreted)
The experiment in a line: ProMMP13/Plasmin P126 Activation Assay. The assay is classed as biochemical. The following applies: proMMP13(1-268) activated by plasmin. The procedure:
ProMMP13/Plasmin P126 Activation Assay
On the day of assay, proMMP13(1-268) (SEQ ID NO:7) purified from HEK293 cells and plasmin were diluted to 160 nM and 320 nM, respectively, in assay buffer. The reaction volume was 50 μL. […] The plate was sealed and incubated for 40 min at 37° C. […] Plasmin was not reactive towards P-126 substrate under these conditions.

T3 sequence (P14780 20-707 R574P): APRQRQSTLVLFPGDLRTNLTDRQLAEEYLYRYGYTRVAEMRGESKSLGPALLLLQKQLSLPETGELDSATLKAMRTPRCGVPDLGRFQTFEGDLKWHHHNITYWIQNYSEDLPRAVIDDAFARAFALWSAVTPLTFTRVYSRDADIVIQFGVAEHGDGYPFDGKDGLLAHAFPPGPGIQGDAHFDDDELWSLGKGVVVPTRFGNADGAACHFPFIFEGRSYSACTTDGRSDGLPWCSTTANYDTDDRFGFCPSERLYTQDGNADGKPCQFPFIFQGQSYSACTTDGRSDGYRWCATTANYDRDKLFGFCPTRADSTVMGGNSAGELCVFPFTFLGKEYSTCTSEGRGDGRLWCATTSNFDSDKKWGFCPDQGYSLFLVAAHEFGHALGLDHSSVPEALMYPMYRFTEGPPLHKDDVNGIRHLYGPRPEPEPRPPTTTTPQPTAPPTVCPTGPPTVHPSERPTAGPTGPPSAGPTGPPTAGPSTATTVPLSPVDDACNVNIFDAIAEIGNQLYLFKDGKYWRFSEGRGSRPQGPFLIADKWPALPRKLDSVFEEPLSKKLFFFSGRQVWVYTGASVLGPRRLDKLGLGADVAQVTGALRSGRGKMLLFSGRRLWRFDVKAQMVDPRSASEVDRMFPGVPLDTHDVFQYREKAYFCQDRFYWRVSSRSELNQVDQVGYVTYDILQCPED

Turning to `CC(C)Oc1ccc(S(N)(=O)=O)cc1Nc1nc(-c2ccc(CN3CCN(C)CC3)cc2)cs1` [Example 49, 4-isopropoxy-3-((4-(4-((4-methylpiperazin-1-yl)methyl)phenyl)thiazol-2-yl)amino)benzenesulfonamide.TFA], the Kd came out at 40 nM in assay [1] and 26 nM in assay [2]. In addition, the IC50 was found to be 180 nM in assay [3] and 3400 nM in assay [4].
As to `CC(C)Oc1ccc(C(N)=O)cc1Nc1nc(-c2ccc(C3=CCN(C(C)C)CC3)cc2)cs1` [Example 19, 4-Isopropoxy-3-((4-(4-(1-isopropyl-1,2,3,6-tetrahydropyridin-4-yl)phenyl)thiazol-2-yl)amino)benzamide.TFA], the Kd turned out to be 21 nM in assay [1] and 13 nM in assay [2]. For the same molecule, the IC50 in assay [3] worked out at 28 nM; in assay [4] it was 87 nM.
The corresponding values for `CCN1CC=C(c2ccc(-c3csc(Nc4cc(C(N)=O)ccc4OC(C)C)n3)cc2)CC1` [Example 18, 3-((4-(4-(1-Ethyl-1,2,3,6-tetrahydropyridin-4-yl)phenyl)thiazol-2-yl)amino)-4-isopropoxybenzamide.TFA] are 51 nM, 17 nM, 25 nM and 32 nM.
The corresponding values for `CC(C)Oc1ccc(C(N)=O)cc1Nc1nc(-c2ccc(CN3CCN(C)CC3)cc2)cs1` [Example 48, 4-isopropoxy-3-((4-(4-((4-methylpiperazin-1-yl)methyl)phenyl)thiazol-2-yl)amino)benzamide.TFA] are 99 nM, 20 nM, 110 nM and 850 nM.
Turning to `CC(C)Oc1ccc(S(N)(=O)=O)cc1Nc1nc(-c2ccc(N3CCNCC3)c(Br)c2)cs1` [Example 2, 3-((4-(3-Bromo-4-(piperazin-1-yl)phenyl)thiazol-2-yl)amino)-4-isopropoxybenzenesulfonamide.TFA], the values for the Kd in assay [1] and in assay [2] were 15 nM and 17 nM, respectively. The results for the IC50 in assay [3] and in assay [4] were 67 nM and 560 nM, respectively.
Consider `CC(C)Oc1ccc(S(N)(=O)=O)cc1Nc1nc(-c2ccc(C3=CCN(C)CC3)cc2)cs1` [Example 13, 4-Isopropoxy-3-((4-(4-(1-methyl-1,2,3,6-tetrahydropyridin-4-yl)phenyl)thiazol-2-yl)amino)benzenesulfonamide.TFA], for which the Kd in assay [1] was 14 nM; in assay [2], 17 nM. For the same molecule, the IC50 turned out to be 24 nM in assay [3] and 190 nM in assay [4].
In the same order, the values of `CC(C)Oc1ccc(S(N)(=O)=O)cc1Nc1nc(-c2ccc(N3CCNCC3)cc2)cs1` [Example 1, 4-Isopropoxy-3-((4-(4-(piperazin-1-yl)phenyl)thiazol-2-yl)amino)benzenesulfonamide.TFA] are 6 nM, 15 nM, 20 nM and 230 nM.
Consider `CC(C)Oc1ccc(C(N)=O)cc1Nc1nc(-c2ccc(CN3CCN(C4CC4)CC3)cc2)cs1` [Example 50, 3-((4-(4-((4-cyclopropylpiperazin-1-yl)methyl)phenyl)thiazol-2-yl)amino)-4-isopropoxybenzamide.TFA], for which the Kd amounted to 100 nM in assay [1] and 22 nM in assay [2]. Besides, the values for the IC50 in assay [3] and in assay [4] were 49 nM and 680 nM, respectively.
The corresponding values for `CC(C)Oc1ccc(S(N)(=O)=O)cc1Nc1nc(-c2ccc(OCCCN3CCOCC3)cc2)cs1` [Example 47, 4-isopropoxy-3-((4-(4-(3-morpholinopropoxy)phenyl)thiazol-2-yl)amino)benzenesulfonamide.TFA] are 77 nM, 32 nM, 76 nM and 600 nM.
The corresponding values for `CCOc1ccncc1Nc1nc(-c2ccc(OCCN3CCN(C)CC3)cc2)cs1` [Example 43, N-(4-ethoxypyridin-3-yl)-4-(4-(2-(4-methylpiperazin-1-yl)ethoxy)phenyl)thiazol-2-amine.TFA] are 89 nM, 550 nM, 70 nM and 2900 nM.
With `CC(C)Oc1ccc(C(N)=O)cc1Nc1nc(-c2ccc(CN3CCN(C(C)C)CC3)cc2)cs1` [Example 56, 4-isopropoxy-3-((4-(4-((4-isopropylpiperazin-1-yl)methyl)phenyl)thiazol-2-yl)amino)benzamide.TFA], the Kd was determined as 80 nM in assay [1] and 18 nM in assay [2]. Moreover, the IC50 turned out to be 100 nM in assay [3] and 420 nM in assay [4].
In the same order, the values of `CC(C)Oc1ccc(S(N)(=O)=O)cc1Nc1nc(-c2ccc(N3CCN(C)CC3)cc2)cs1` [Example 3, 4-Isopropoxy-3-((4-(4-(4-methylpiperazin-1-yl)phenyl)thiazol-2-yl)amino)benzenesulfonamide.HCl] are 88 nM, 88 nM, 74 nM and 390 nM.
In the same order, the values of `CC(C)Oc1ccc(S(N)(=O)=O)cc1Nc1nc(-c2ccc(OCCN3CCN(C4CC4)CC3)cc2)cs1` [Example 45, 3-((4-(4-(2-(4-cyclopropylpiperazin-1-yl)ethoxy)phenyl)thiazol-2-yl)amino)-4-isopropoxybenzenesulfonamide.TFA] are 56 nM, 29 nM, 41 nM and 950 nM.
The corresponding values for `CC(C)Oc1ccc(C(N)=O)cc1Nc1nc(-c2ccc(C3=CCN(C)CC3)cc2)cs1` [Example 17, 4-Isopropoxy-3-((4-(4-(1-methyl-1,2,3,6-tetrahydropyridin-4-yl)phenyl)thiazol-2-yl)amino)benzamide.TFA] are 24 nM, 11 nM, 26 nM and 91 nM.
On to `CC(C)Oc1ccc(C(N)=O)cc1Nc1nc(-c2ccc(OCCN3CCN(C4CC4)CC3)cc2)cs1` [Example 44, 3-((4-(4-(2-(4-cyclopropylpiperazin-1-yl)ethoxy)phenyl)thiazol-2-yl)amino)-4-isopropoxybenzamide.TFA], for which the Kd in assay [1] is 110 nM; in assay [2], 24 nM. For the same molecule, the IC50 was 43 nM in assay [3] and 520 nM in assay [4].

As usually defined, the IC50 is the point on the concentration scale where inhibition reaches its midpoint.
